According to a melting point compilation (Tetko et al.; mined from patent text by program, amines drawn as free bases though some values may be those of a salt):

Compound | melting point [°C]
Cn1cc(Br)cc(Nc2ccncn2)c1=O | 217 to 219
CCCCCCCCNC(=O)N1CCC(Nc2ccc(CCNC[C@H](O)COc3ccc(F)cc3)cc2)CC1 | 58 to 64
CCCCNC(=O)CC(=O)Nc1ccc(Br)cc1C | 123 to 125
C#CCCN1C(=O)c2ccccc2C1=O | 137 to 139
COc1cc(C)c(C(=O)c2c(Cl)cnc(Cl)c2Cl)c(OC)c1OC | 60 to 61
O=C1COC(c2ccccc2)c2ccccc2N1 (stereo not drawn) | 193 to 195
O=C1C=C(O)C(=O)c2cc(-c3ccccc3)ccc21 | 190 to 192
Cn1nnnc1SCC1=C(C(=O)OCOC(=O)C(C)(C)C)N2C(=O)C(NC(=O)Cc3csc(=O)s3)C2SC1 (stereo not drawn) | 100
CS(=O)(=O)c1ccc(Oc2ccc(Br)cc2)nc1 | 125 to 126
Cc1nnc(-c2cc3cccc(NS(=O)(=O)c4cccs4)c3[nH]2)s1 | 308 to 309
Cc1nnc(CNC(=O)CNC(=O)CN2C(=O)c3ccccc3C2=O)n1-c1ccc(Cl)cc1C(=O)c1ccccc1Cl | 269 to 270
CN1CCN(c2cc(Cl)cc3c2c(=O)n(Cc2cccc(Br)c2)c(=O)n3Cc2ccccc2)CC1 | 154 to 157
CCCCCc1ccc(-c2ccc(-c3ccc(C)cc3)s2)cc1F | 115
O=C1N(c2ccccc2Br)Cc2cnc(Nc3ccccc3)nc2N1c1cccc(CO)c1 | 136
CCOC(=O)C(Cc1ccc(C(F)(F)F)c(F)c1)C(=O)c1ccc(F)cc1 (stereo not drawn) | 56 to 57
CN(Cc1ccccc1)c1cc(C(=O)O)ccc1C(N)C(=O)O (stereo not drawn) | 193
COc1ccc(NN=C(Sc2cc(Cl)cc(Cl)c2)C(C)=O)cc1 | 168 to 170
CN1C(=O)Cc2cc(Br)cnc21 | 149
O=C1NC(=S)SC1=Cc1ccc(Oc2ccccc2)cc1 | 195 to 200
COc1ccc(-c2ccc3c(C(=O)c4ccn5c4C(C)(C)SC5c4cccnc4)c[nH]c3c2)cc1 (stereo not drawn) | 236 to 239
O=C(Nc1cnc2sc(CO)nc2c1)c1cc2cc(F)ccc2n1Cc1cccc(F)c1 | 225 to 226
NS(=O)(=O)c1ccc(-c2noc(-c3cnn4c(C(F)(F)F)cc(-c5ccc(C(F)(F)F)cc5)nc34)n2)cc1 | 275
CN(C)CCNC(=O)Cn1c(-c2ccc(Br)cc2)nc2cccnc21 | 195 to 197
O=C(C=Cc1ccccc1)CC(=O)C=Cc1ccccc1 | 138
Fc1cccc(Cl)c1-c1cc(Cl)n(-c2ccc(COc3ncc(C(F)(F)F)cc3Cl)cc2)n1 | 120 to 121
Cc1ccccc1N=C(C#N)c1c(Cl)cccc1Cl | 55

Compound | melting point [°C]
CC(=O)NC(NCC(=O)OCc1ccccc1)C(=O)NCc1ccccc1 (stereo not drawn) | 133 to 135
Cc1c(NC(=O)N2C[C@H](O[Si](C)(C)C(C)(C)C)C[C@H]2CO)ccc(C#N)c1Cl | 169 to 171
Nc1ccccc1C(=O)C=Cc1ccncc1 | 168
NC(=S)NN=C(CNC(=O)C1CCCCC1)c1ccccc1 | 104 to 110
CC(C)(C)OC(=O)CS | 72
CC(=O)N[C@@H](c1ccccc1)[C@@H](O)C(=O)OC(C)C | 104 to 106
NS(=O)(=O)c1ccc(-c2cnn(Cc3ccccc3)c(=O)c2-c2ccc(F)cc2)cc1 | 185 to 189
CCSc1ccc(N)c(C(=O)O)c1 | 97 to 100
Nc1c(CC(=O)O)cccc1S(=O)(=O)c1ccccc1 | 218 to 220
C=C1CC2(C)C(=O)CC(O)C2C2CCC3=CC(=O)CCC3C12 (stereo not drawn) | 237
CC1CN(c2ccc(N3CC(CNC(=O)CC#N)OC3=O)cc2F)CCC1=CC#N (stereo not drawn) | 102 to 104
Cc1ccc(-c2nc(=O)c3ccccc3s2)n1C | 194 to 196
Cc1nnc(-c2ccc3occ(-c4cnn(Cc5ccccc5F)c4)c3c2)o1 | 142 to 143
Cc1ccc(I)c(CC(=O)N(C)C)c1 | 47 to 49
O=C(O)C(Cl)=C(Cl)C(O)=NCCCc1ccc(Cl)cc1 | 72 to 73
Cc1ccc2c(c1)nc(C)c(=O)n2-c1ccc(Cl)cc1 | 223 to 225
CS(=O)(=O)N1CCN(c2ccc(NC(=O)c3ccccc3-c3ccc(C(F)(F)F)cc3)cc2)CC1 | 254 to 256
O=Cc1c[nH]cc1-c1cccc(Cl)c1Cl | 152 to 154
NC(=O)C1CCc2[nH]c3cc(Cl)c(Cl)cc3c2C1 (stereo not drawn) | 199 to 200
CCC1(C)OC(c2ccc(S(N)(=O)=O)cc2)=C(c2ccsc2)C1=O (stereo not drawn) | 120 to 121
COC(=O)c1cccc(-c2cccc([N+](=O)[O-])c2)c1 | 88 to 89
COc1nc2c(cc1C#N)CCCCC2 | 83.5 to 84
Cc1cc(-c2ccc(Cl)cc2)nn2c(C)nnc12 | 209 to 212
CCN(CC)C(=O)CCS(=O)(=O)c1cc(-c2ccccc2)nc2ccccc12 | 100
CCOC(=O)C1OC1C(=O)NCc1ccccc1 (stereo not drawn) | 90 to 91
COc1ccc(-c2nc(SC(F)(F)CF)[nH]c2-c2ccc(OC)cc2)cc1 | 144 to 145

Compound | melting point [°C]
CN(C1=NC(=O)C(=O)S1)c1ccc(-c2ncn(-c3ccc(OC(F)(F)F)cc3)n2)cc1 | 114 to 118
CCCCN1C(=O)CC(C(=O)Nc2nccs2)C(=O)c2ccc(Cl)cc21 (stereo not drawn) | 238 to 240
CCOC(=O)c1cnc2n(c1=O)CCC2 | 59 to 60
CNS(=O)(=O)c1ccc(-c2coc3ccc(-c4nnc(C)o4)cc23)cc1 | 203 to 204
CCCCOCCCNC(c1ccccc1)C(O)c1ccccc1 (stereo not drawn) | 82 to 84
COc1ccc2cccc(N)c2c1 | 134 to 136
O=C(O)c1ccc(-c2nc(-c3cccc(C(F)(F)F)c3)co2)cc1 | 253 to 254
CCCCCCCCCCCCCCCCCCOCCC(=O)COCc1ccccc1 | 33 to 34
O=P(c1ccccc1)(c1ccccc1)c1nc2ccccc2nc1P(=O)(c1ccccc1)c1ccccc1 | 258 to 272
O=C(N[C@H]1CC[C@H](CCN2CCN(c3nccc4c3CCO4)CC2)CC1)c1ccc(Cl)cc1 | 226
CC(C)(C)c1csc(-c2nc(Cl)c(Cl)[nH]2)n1 | 157 to 158
O=C(CCCCC1(C(=O)O)CCCC1)CCCCC1(C(=O)O)CCCC1 | 99 to 103
CC(C)=CCNc1ncnc2nc(NCCN)[nH]c12 | 96 to 102
CCCc1cc(N2CCC(NCC(O)c3cnc4ccccc4c3)CC2)nc2sc(C(N)=O)c(N)c12 (stereo not drawn) | 213 to 216
O=[N+]([O-])c1cccc(-n2cnc3c([N+](=O)[O-])cccc32)c1 | 159 to 161
C(=C1CCN(C(c2ccccc2)(c2ccccc2)c2ccccc2)CC1)c1ccc(C2=NCCO2)cc1 | 74
O=C(O)c1ccc2c(c1)C=C(Cn1ccnc1)CO2 | 258 to 259
Cn1c(COc2ccc(CC3SC(=O)NC3=O)cc2)nc2ccc(Oc3ccc(NC(=O)Nc4ccc(C(F)(F)F)cc4)cc3)cc21 (stereo not drawn) | 179 to 180
C1CCC(C2CNCCNCCNCCNCCN2)CC1 (stereo not drawn) | 67 to 69.5
COCCNC(=O)CC1CN=C(c2cc3cc(Oc4ccc(S(C)(=O)=O)nc4)ccc3[nH]2)S1 (stereo not drawn) | 155 to 156
CCOC(=O)CCNC(=O)Nc1ccc([N+](=O)[O-])cc1O | 115 to 116
OC(CCc1ccc(OCc2ccccc2)c(OCc2ccccc2)c1)C1CCCCC1 (stereo not drawn) | 107 to 108
CCN(CC)C(=O)CCCOc1ccc(Oc2ccccc2)cc1 | 73 to 74
COC(=O)c1cc(-c2ccc(Cl)c(C)c2)n(Cc2ccc(C)cc2)n1 | 98
CC(=O)Nc1cccc2c1S(=O)(=O)C(C)C2 (stereo not drawn) | 115 to 117
CC(C)(C)OC(=O)N1CCOS1(=O)=O | 122

Compound | melting point [°C]
CC(N1C(=O)C(=O)N(c2cccc(C#N)c2)C1=S)C(C)(C)C (stereo not drawn) | 168 to 169
COC(=O)c1sc(C)c(C#N)c1N | 209 to 210
O=C1CCc2c1cccc2-c1ccc(C(F)(F)F)cc1 | 75 to 78
Cc1ccc(-c2nc(CCC(O[Si](C)(C)C(C)(C)C)c3ccc(C=O)s3)c(C)o2)cc1 (stereo not drawn) | 122 to 124
COc1ccc(-c2cc3c(OC)cc(OC)cc3nc2OCC#N)cc1 | 149 to 150
Cc1c[nH]c(=O)nc1N | 264 to 269
CCOC(=O)C(Oc1ccc(Cl)cc1)C(=O)OCC | 43.5 to 45
CN1CCN(c2cc(-c3cnc4c(c3)N(C(=O)Cc3cc(F)ccc3F)CCN4)ccn2)CC1 | > 300
CC(=O)C(=Cc1ccccc1)C(C)=O | 165 to 167
Fc1cccc(-c2ccc3nncn3n2)c1 | 159 to 161
CCOc1ccccc1C(=O)Nc1c(OC)cccc1C(N)=O | 177 to 179
NCCCc1c[nH]c2ccc3c(=O)[nH]ccc3c12 | 225 to 230
Nc1cccc2c1CNC2=O | 196 to 197
CCCCc1oc2ccc([N+](=O)[O-])cc2c1C(=O)c1ccc(OCCBr)cc1 | 81
CCCCCCCCCCCCON(Cc1ccccc1)C(c1ccccc1)P(=O)(OCCCCCCCCCCCC)OCCCCCCCCCCCC (stereo not drawn) | 38 to 40
O=C(O)C1CCc2cc([N+](=O)[O-])ccc2O1 (stereo not drawn) | 180
CCOC(=O)C(=Cc1ccc(OC)c(O)c1)C(=O)OCC | 81 to 83
Cc1[nH]c(-c2ccccc2)c(NC(=O)CN2C(=O)c3ccccc3C2=O)c1C(=O)c1ccccc1 | 288 to 290
COCCOCCOC(=O)C1C=Nc2c(ccc3cccnc23)C1=O (stereo not drawn) | 164 to 165
CO[C@@H]1CCCC(c2ccc(C(=O)N3Cc4cccn4Cc4ccccc43)cc2C)=C1C | 127 to 128
CN(C)CCCn1nnc(-c2ccc3c(c2)S(=O)(=O)c2ccccc2C3=O)n1 | 141 to 142
COc1cc(CNC(=O)c2oc(=O)c3ncccc3c2-c2ccc(C)cc2)cc(OC)c1 | 154 to 155
O=C1C(=Cc2ccccc2)SC(=S)N1N=c1sc2ccccc2s1 | 288 to 289
Cn1nc(-c2cccc(C(F)(F)F)c2)c(Cl)c1C(=O)O | 180 to 183
Nc1ccn([C@H]2C=C[C@@H](O)CC2)c(=O)n1 (racemic) | 224 to 226
